Common to all, as to type: biochemical
The target in assay [1] is T1, VAChT (vesicular acetylcholine transporter) (Homo sapiens, UniProt Q16572).
T1 construct: gene SLC18A3; recombinant, expressed in insect cells or E. coli, Ni-NTA purified, co-reconstituted with bacterial F-ATPase in liposomes
T1 sequence (Q16572 1-532): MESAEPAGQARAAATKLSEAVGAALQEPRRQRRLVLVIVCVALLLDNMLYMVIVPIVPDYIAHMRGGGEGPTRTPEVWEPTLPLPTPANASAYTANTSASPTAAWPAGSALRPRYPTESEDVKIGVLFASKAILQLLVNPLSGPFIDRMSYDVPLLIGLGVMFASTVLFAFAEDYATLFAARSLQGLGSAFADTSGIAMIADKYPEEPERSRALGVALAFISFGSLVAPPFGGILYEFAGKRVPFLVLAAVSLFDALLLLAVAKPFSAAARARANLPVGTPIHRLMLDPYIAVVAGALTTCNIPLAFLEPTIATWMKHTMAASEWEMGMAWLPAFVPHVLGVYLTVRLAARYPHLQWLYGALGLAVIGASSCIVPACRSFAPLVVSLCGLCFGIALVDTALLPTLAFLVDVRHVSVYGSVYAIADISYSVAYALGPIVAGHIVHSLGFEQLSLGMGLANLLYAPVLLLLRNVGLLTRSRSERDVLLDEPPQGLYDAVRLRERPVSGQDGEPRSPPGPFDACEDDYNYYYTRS
In words: inhibition of ATP-driven radiolabelled substrate uptake into proteoliposomes with F-ATPase. The source says: inhibition of ATP-driven radiolabelled substrate uptake into proteoliposomes with F-ATPase on VAChT (vesicular acetylcholine transporter)

Assay [2] has as its target T2, VMAT2 (vesicular monoamine transporter 2) (Rattus norvegicus, UniProt Q01827).
T2 construct: gene Slc18a2; recombinant, expressed in insect cells or E. coli, Ni-NTA purified, co-reconstituted with bacterial F-ATPase in liposomes
The assay is described as above. The source says: inhibition of ATP-driven radiolabelled substrate uptake into proteoliposomes with F-ATPase on VMAT2 (vesicular monoamine transporter 2)

Assay [3] addresses T3, VGAT (vesicular GABA transporter) (Rattus norvegicus, UniProt O35458).
T3 construct: gene Slc32a1; recombinant, expressed in insect cells or E. coli, Ni-NTA purified, reconstituted in asolectin liposomes
T3 sequence (O35458 1-525): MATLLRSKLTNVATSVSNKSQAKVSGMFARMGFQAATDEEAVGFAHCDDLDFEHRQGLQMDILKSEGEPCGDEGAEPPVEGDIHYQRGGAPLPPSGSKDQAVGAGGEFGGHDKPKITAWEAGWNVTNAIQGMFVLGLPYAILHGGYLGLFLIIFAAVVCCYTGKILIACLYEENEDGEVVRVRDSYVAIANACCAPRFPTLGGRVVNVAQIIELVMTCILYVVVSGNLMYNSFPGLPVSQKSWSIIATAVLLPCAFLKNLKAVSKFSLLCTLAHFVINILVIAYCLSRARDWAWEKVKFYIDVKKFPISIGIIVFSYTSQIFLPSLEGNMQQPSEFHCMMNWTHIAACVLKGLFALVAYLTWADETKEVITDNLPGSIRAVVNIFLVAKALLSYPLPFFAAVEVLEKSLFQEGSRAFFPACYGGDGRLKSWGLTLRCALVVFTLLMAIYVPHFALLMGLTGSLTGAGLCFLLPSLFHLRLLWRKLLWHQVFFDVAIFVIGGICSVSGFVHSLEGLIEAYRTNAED
In words: inhibition of valinomycin-evoked radiolabelled substrate uptake into proteoliposomes. The source says:
inhibition of valinomycin-evoked radiolabelled substrate uptake into proteoliposomes on VGAT (vesicular GABA transporter)

In assay [4] the target is T4, VEAT (vesicular excitatory amino acid transporter) (Mus musculus, UniProt Q8BN82).
T4 construct: gene Slc17a5; recombinant, expressed in insect cells or E. coli, Ni-NTA purified, reconstituted in asolectin liposomes
T4 sequence (Q8BN82 1-495): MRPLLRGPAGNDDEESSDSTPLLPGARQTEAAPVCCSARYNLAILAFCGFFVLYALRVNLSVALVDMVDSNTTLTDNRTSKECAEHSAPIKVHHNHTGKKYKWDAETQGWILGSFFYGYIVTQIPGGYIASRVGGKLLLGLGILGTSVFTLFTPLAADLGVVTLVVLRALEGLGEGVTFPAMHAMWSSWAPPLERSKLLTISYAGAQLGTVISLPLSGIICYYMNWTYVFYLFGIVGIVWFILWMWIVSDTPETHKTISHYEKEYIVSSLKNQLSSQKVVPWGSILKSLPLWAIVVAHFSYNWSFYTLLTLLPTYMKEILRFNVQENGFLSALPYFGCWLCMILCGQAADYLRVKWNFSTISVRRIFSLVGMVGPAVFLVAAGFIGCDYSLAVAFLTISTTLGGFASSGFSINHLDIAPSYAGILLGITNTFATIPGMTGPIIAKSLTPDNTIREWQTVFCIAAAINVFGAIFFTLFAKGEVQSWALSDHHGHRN
Described as above. The source says: inhibition of valinomycin-evoked radiolabelled substrate uptake into proteoliposomes on VEAT (vesicular excitatory amino acid transporter)

Assay [5] deals with T5, VNUT (vesicular nucleotide transporter, SLC17A9 protein) (Homo sapiens, UniProt Q9BYT1).
T5 construct: recombinant, expressed in insect cells or E. coli, octylglucoside-solubilized, Ni-NTA purified, reconstituted in asolectin liposomes
T5 sequence (Q9BYT1 1-436): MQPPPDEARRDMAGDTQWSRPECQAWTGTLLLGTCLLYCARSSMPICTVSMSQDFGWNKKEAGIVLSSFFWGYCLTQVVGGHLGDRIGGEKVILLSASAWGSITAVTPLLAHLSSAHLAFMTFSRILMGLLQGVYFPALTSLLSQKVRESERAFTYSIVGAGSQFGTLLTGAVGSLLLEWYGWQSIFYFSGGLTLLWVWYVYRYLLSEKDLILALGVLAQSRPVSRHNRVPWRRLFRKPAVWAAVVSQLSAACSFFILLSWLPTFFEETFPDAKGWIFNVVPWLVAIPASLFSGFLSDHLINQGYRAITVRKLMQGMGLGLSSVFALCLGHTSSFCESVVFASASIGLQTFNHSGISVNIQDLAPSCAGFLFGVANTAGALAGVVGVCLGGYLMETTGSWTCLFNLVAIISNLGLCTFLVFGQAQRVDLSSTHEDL
Described as above.

Setting [6] is: read-out: IC50 (μmol/L) / Acetoacetate.
The mark [7] stands for this setting: read-out: IC50 (μmol/L) / Glyoxylate.

Like-named read-outs stand apart in the source and are kept apart here. Where only a bound is given, the exact number is not on record here.

T2 sequence (Q01827 whole entry): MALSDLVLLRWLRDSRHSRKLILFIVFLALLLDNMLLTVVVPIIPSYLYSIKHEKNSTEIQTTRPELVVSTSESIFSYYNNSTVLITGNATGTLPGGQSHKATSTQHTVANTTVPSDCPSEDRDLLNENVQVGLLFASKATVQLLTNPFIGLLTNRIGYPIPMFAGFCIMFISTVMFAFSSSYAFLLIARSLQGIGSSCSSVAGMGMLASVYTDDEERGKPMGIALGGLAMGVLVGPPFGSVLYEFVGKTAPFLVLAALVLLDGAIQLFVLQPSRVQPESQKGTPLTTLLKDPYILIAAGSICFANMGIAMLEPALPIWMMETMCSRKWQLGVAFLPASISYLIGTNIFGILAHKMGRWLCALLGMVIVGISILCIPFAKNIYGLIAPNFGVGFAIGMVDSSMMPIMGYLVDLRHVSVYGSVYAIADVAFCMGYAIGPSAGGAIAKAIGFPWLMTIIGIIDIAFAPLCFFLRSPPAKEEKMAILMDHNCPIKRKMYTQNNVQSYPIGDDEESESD

Take `CC(=O)CC(=O)O` [acetoacetate]: the IC50 in assay [1] was greater than 10000 µM; in assay [2], greater than 10000 µM; in assay [3] it was greater than 10000 µM; in assay [4] (setting [6]) it was 130 µmol/L; in assay [5] (setting [6]) it was 190 µmol/L.

Take `O=CC(=O)O` [glyoxylate]: the IC50 in assay [1] is greater than 10000 µM; in assay [2] it was greater than 10000 µM; in assay [3], greater than 10000 µM; in assay [4] (setting [7]) it was 52 µmol/L; in assay [5] (setting [7]) it was 4.1 µmol/L.

The values are drawn from PMC4208647, “Essential role of vesicular nucleotide transporter in vesicular storage and release of nucleotides in platelets” (Physiological Reports, 2014).
